Where “and” joins values, the source holds several entries; their conditions need not be identical. Identical values can stand only once. Entries after “also recorded” stand apart in the source; their conditions may differ. Square brackets hold non-standard residues; d marks the D form. Peptide text beside a SMILES is read from it. d2Nal = N[C@H](Cc1ccc2ccccc2c1)C(=O)O
What was measured:
[1] = test system: B1R mRNA in thoracic spinal cord; test: B1R mRNA expression, SYBR green-based quantitative RT-PCR; parameters: species or system rat; settings: STZ 65 mg/kg i.p., 4 days, 18S reference, means of 3 to 6 rats
Method: (§1) Rats were used 5 days after their arrival and injected under low light with freshly prepared STZ (65 mg/kg; i.p.; Sigma-Aldrich, Oakville, ON, Canada). Age-matched controls were injected with vehicle (sterile saline 0.9%, pH. 7.0). Glucose concentrations were measured, with a commercial blood glucose-monitoring kit (Accusoft; Roche Diagnostics, Laval, Que., Canada), in blood samples obtained from the tail vein, in non-fasting animals, before STZ injection, and 4 days after treatment. Only STZ-treated rats whose blood glucose concentration was higher than 20 mM were considered as diabetic.
Four days after injection of STZ, rats were anaesthetized with CO2 inhalation and then decapitated. […] First-strand cDNA synthesized from 400 ng total RNA with random hexamer primers was used as template for each reaction with the QuantiTect Rev Transcription Kit (QIAGEN). SYBR Green-based real-time quantitative PCR using Mx3000p device for signal detection (Stratagene, La Jolla, CA, USA) was performed as described. […] For standardization and quantification, rat 18S was amplified simultaneously. […]
PCR conditions were as follows: 95°C for 15 min, followed by 46 cycles at 94°C for 15 s, 60°C for 30 s and 72°C for 30 s. […] The relative quantification of gene expression was analyzed by the 2^-ΔΔCt method.

[2] = test system: B1R binding sites in thoracic spinal cord; test: density of specific B1R binding sites, quantitative autoradiography; parameters: species or system rat; settings: STZ 65 mg/kg i.p., 4 days, 7 to 8 rats
Method: as §1
The radioligands for kinin B1R, HPP-desArg^10-Hoe140 (3-(4 hydroxyphenyl) propionyl-desArg^9-D-Arg^0 [Hyp^3, Thi^5, D-Tic^7, Oic^8]Bradykinin) and kinin B2R, HPP-Hoe140 (3-(4 hydroxyphenyl) propionyl-D-Arg^0 [Hyp^3, Thi^5, D-Tic^7, Oic^8]Bradykinin) were synthesized and kindly provided by Dr Witold Neugebauer (Dept Pharmacology, University of Sherbrooke, Sherbrooke, Que., Canada). They were iodinated by the chloramine T method. […] Autoradiograms were quantified by densitometry using an MCID™ image analysis system (Imaging Research, St. Catharines, ON, Canada). […] Specific binding was determined by subtracting values of nonspecific binding from that of total binding.

kinin B1R = molecular target: T1, kinin B1R (Rattus norvegicus, UniProt P97583); test: competition curves by quantitative autoradiography, displacement of [^125I]-HPP-desArg^10-Hoe 140 (B1R); settings: 200 pM [^125I]-HPP-desArg^10-Hoe 140, competitor 10^-10 to 10^-6 M, thoracic spinal cord sections of STZ-treated rats, 90 min, room temperature, 25 mM PIPES-NH4OH pH 7.4; means ± SEM, 4 sections per rat from 7 rats; read-out: IC50, inhibition of total B1R binding sites
T1 construct: from tissue; host or cells: rat spinal cord sections (autoradiography)
T1 sequence (P97583 1-337): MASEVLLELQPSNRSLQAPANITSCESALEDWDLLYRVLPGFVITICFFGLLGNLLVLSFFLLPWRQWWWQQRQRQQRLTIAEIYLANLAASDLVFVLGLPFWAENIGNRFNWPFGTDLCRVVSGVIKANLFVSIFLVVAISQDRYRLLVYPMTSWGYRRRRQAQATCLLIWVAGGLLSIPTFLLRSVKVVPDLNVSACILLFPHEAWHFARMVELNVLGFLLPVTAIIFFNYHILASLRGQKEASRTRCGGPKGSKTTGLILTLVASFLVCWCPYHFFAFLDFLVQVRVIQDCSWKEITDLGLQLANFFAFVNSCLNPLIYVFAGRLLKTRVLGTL
Method: (§2) They were iodinated by the chloramine T method. […] At the end of the incubation period, slides were transferred sequentially through four rinses of 4 min each in 25 mM PIPES (pH 7.4; 4°C) dipped for 15s in distilled water (4°C) to remove the excess of salts, and then air-dried. Kodak Scientific Imaging Films BIOMAXTM MR® (Amersham Pharmacia Biotech Canada) were juxtaposed onto the slides in the presence of [^125I]-microscales and exposed at room temperature for 7 days. The films were developed (GBX developer) and fixed (GBX fixer). Autoradiograms were quantified by densitometry using an MCIDTM image analysis system (Imaging Research, St. Catharines, ON, Canada). A standard curve from [^125I]-microscales was used to convert density levels into fentomoles per milligram of protein [48]. Specific binding was determined by subtracting values of nonspecific binding from that of total binding. […] Each concentration of each competitor was tested on 4 sections per rat from 7 different rats. Those sections were exposed to the film, and total binding was calculated as described above. […] All data were expressed as means ± S.E.M. obtained from n rats. Statistical significance was determined with Student's t-test for unpaired samples or a one-way analysis of variance (ANOVA) followed by post-hoc Dunnett test for multiple comparisons.

kinin B2R = molecular target: T2, kinin B2R (Rattus norvegicus, UniProt P25023); test: competition curves by quantitative autoradiography, displacement of [^125I]-HPP-Hoe 140 (B2R); settings: 200 pM [^125I]-HPP-Hoe 140, competitor 10^-10 to 10^-6 M, thoracic spinal cord sections of STZ-treated rats, 90 min, room temperature, 25 mM PIPES-NH4OH pH 7.4; means ± SEM, 4 sections per rat from 7 rats; read-out: IC50, displacement of B2R binding sites
T2 construct: from tissue; host or cells: rat tissue sections (spinal cord, autoradiography)
T2 sequence (P25023 1-396): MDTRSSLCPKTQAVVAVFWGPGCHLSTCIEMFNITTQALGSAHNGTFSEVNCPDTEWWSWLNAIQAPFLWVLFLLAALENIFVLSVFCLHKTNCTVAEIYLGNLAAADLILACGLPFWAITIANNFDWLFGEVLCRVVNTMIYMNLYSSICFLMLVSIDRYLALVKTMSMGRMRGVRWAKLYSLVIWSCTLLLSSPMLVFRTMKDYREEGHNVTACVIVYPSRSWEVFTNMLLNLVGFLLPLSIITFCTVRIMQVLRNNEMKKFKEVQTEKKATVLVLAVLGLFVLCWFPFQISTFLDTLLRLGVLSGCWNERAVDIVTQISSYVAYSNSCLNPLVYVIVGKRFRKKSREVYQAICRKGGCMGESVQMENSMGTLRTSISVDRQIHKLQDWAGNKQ
Method: as §2

B1R = settings: cited from earlier work
Description: (§3) Importantly, the development of tactile and cold allodynia in a rat model of insulin-resistance was blocked by the B1R antagonist SSR240612 [28] and by two antioxidants (N-acetyl-L-cysteine and alpha-lipoic acid) ...

[3] = test system: rat model of insulin-resistance; settings: cited from earlier work
Description: as §3

[4] = test system: B1R in thoracic spinal cord; test: BdABK fluorescent labeling of B1R and its displacement, confocal microscopy; type: binding, rat; settings: STZ-treated thoracic spinal cord, BdABK 50 μM co-incubated with 10^-5 M antagonist
Method: On the day of experiments, sections were thawed at room temperature for 10 min to enhance sections adhesion. They were pre-incubated for 10 min in 25 mM PIPES-NH4OH buffer (pH 7.4) to allow degradation of endogenous kinins which could occupy receptors. Sections were exposed for 90 min to 50 μM BdABK. Thereafter, slides were washed twice (1 min) in PIPES and fixed with 4% para-formaldehyde. Slides were washed three times (5 min) and then exposed to 1 M of glycine for 90 min to eliminate autofluorescence from aldehyde-fixed tissue. […] Each concentration of each competitor was tested on 4 sections per rat from 7 different rats. Those sections were exposed to the film, and total binding was calculated as described above.

## CN(N=O)C(=O)N[C@H]1C(O)O[C@H](CO)[C@@H](O)[C@@H]1O (mixture of isomers) [STZ, streptozotocin]
[1]
  B1R mRNA expression increase (fold change vs control): 18 fold and 18.1 fold
[2]
  B1R binding sites, fold vs control: 2.7 fold

## CC1=CC(C)=[N+]2C1=Cc1ccc(CCC(=O)N[C@@H](CCCNC(=N)N)C(=O)N3CCC[C@H]3C(=O)N3CCC[C@H]3C(=O)NCC(=O)N[C@@H](Cc3ccccc3)C(=O)N[C@@H](CO)C(=O)N3CCC[C@H]3C(=O)N[C@@H](Cc3ccccc3)C(=O)O)n1[B-]2(F)F [BdABK, [N^α-Bodipy]-des-Arg^9-BK]
Kinin B1R
  IC50: 5.3 nM

## NC(N)=NCCC[C@@H](N)C(=O)N[C@@H](CCCN=C(N)N)C(=O)N1CCC[C@H]1C(=O)N1C[C@H](O)C[C@H]1C(=O)NCC(=O)N[C@@H](Cc1cccs1)C(=O)N[C@@H](CO)C(=O)N1Cc2ccccc2C[C@@H]1C(=O)N1[C@H](C(=O)N[C@@H](CCCN=C(N)N)C(=O)O)C[C@@H]2CCCC[C@@H]21 [Hoe 140]
Kinin B2R
  IC50: 1.33 ± 0.1 nM

## CC(=O)N[C@@H](CS)C(=O)O [N-acetyl-L-cysteine]
B1R
  induction of B1R, antioxidants: prevent the induction of B1R
[3]
  development of tactile and cold allodynia, antioxidants: blocked

## CC[C@H](C)[C@H](NC(=O)[C@@H](Cc1ccc2ccccc2c1)NC(=O)[C@H](CO)NC(=O)[C@H](Cc1ccccc1)NC(=O)CNC(=O)[C@@H]1CCCN1C(=O)[C@@H]1CCCN1C(=O)[C@H](CCCN=C(N)N)NC(=O)[C@H](CCCCN)NC(C)=O)C(=O)O [R-715, AcLys [D-βNal^7, Ile^8]des-Arg^9-BK] (Ac-KRPPGFS[d2Nal]I-OH)
Kinin B1R
  IC50: 4.3 nM

## CCN(C(=O)[C@@H](Cc1ccc(CN2[C@H](C)CCC[C@@H]2C)cc1)NC(=O)C[C@@H](NS(=O)(=O)c1ccc2cc(OC)ccc2c1)c1ccc2c(c1)OCO2)C(C)C.Cl [SSR240612]
[4]
  displacement of BdABK labeling by B1R antagonist: absence of BdABK labeling; also recorded: B1R labeling was absent; also recorded: elimination of B1R labeling
[3]
  development of tactile and cold allodynia: blocked

## O=C(O)CCCCC1CCSS1 (stereo not drawn) [alpha-lipoic acid]
B1R
  induction of B1R, antioxidants: prevent the induction of B1R
[3]
  development of tactile and cold allodynia, antioxidants: blocked

## N=C(N)NCCC[C@H](N)C(=O)N1CCC[C@H]1C(=O)N1CCC[C@H]1C(=O)NCC(=O)N[C@@H](Cc1ccccc1)C(=O)N[C@@H](CO)C(=O)N1CCC[C@H]1C(=O)N[C@@H](Cc1ccccc1)C(=O)O [des-Arg^9-BK]
Kinin B1R
  IC50: 19 nM

From publication PMC2667487, “Cellular localization of kinin B1 receptor in the spinal cord of streptozotocin-diabetic rats with a fluorescent [N^α-Bodipy]-des-Arg^9-bradykinin” (Journal of Neuroinflammation, 2009)
